According to DBAASP:
≈ marks a conversion by molar mass, not a printed value. Blank lines part the entries; values can stand above or below the compound they belong to.

Legend:
Experiment in all cases: ≥ marks a high value that may be exact or a test limit, other limits are often not marked, values filed in µg/mL are converted to µM
[1] = system: Enterobacter asburiae St. L P23
[2] = system: Acinetobacter baumannii Josh 230
[3] = system: Enterobacter cloacae BB2013-32
[4] = system: Escherichia coli BW25113
[5] = system: Escherichia coli ARLG-1012
[6] = system: Klebsiella pneumoniae Oschner KP-1
[7] = system: Escherichia coli JW55034
[8] = system: Klebsiella aerogenes St. L P63
[9] = system: Pseudomonas aeruginosa J4228
[10] = system: Klebsiella pneumoniae BB2009-209
[11] = system: Enterobacter cloacae BB2012-181
[12] = system: Klebsiella pneumoniae J3702
[13] = system: Escherichia coli BB2013-30
[14] = system: Enterobacter cloacae St. L P23
[15] = system: Acinetobacter baumannii Josh 28
[16] = system: Pseudomonas aeruginosa ATCC 27853
[17] = system: Pseudomonas aeruginosa BB2013-100
[18] = system: Bacillus subtilis KCTC 3068
[19] = system: Staphylococcus aureus CCARM 3126
[20] = system: Staphylococcus aureus KCTC 1621
[21] = system: Acinetobacter baumannii KCTC 2508
[22] = system: Acinetobacter baumannii CCARM 12035
[23] = system: Salmonella typhimurium KCTC 1926
[24] = system: Escherichia coli CCARM 1229
[25] = system: Pseudomonas aeruginosa CCARM 2002
[26] = system: Escherichia coli KCTC 1682
[27] = system: Staphylococcus epidermidis KCTC 1917
[28] = system: Pseudomonas aeruginosa KCTC 2004
[29] = system: Salmonella typhimurium CCARM 8007
[30] = system: Pseudomonas aeruginosa H1001
[31] = system: Acinetobacter baumannii
[32] = system: Pseudomonas aeruginosa
[33] = system: Salmonella enterica subsp. enterica serovar Pullorum C79-13
[34] = system: Escherichia coli K99
[35] = system: Escherichia coli UB1005
[36] = system: Salmonella enterica subsp. enterica serovar Typhimurium C77-31
[37] = system: Escherichia coli ATCC 25922
[38] = system: Escherichia coli K88
[39] = system: Pseudomonas aeruginosa CICC 21625
[40] = system: Escherichia coli
[41] = system: Pseudomonas aeruginosa CICC 21630
[42] = system: Klebsiella pneumoniae
[43] = system: Salmonella enterica subsp. enterica serovar Typhimurium ATCC 14028
[44] = system: Pseudomonas aeruginosa PAO1

Compound: CC[C@H](C)[C@H](NC(=O)[C@H](C)N)C(=O)N[C@@H](CCCCN)C(=O)N[C@H](C(=O)N[C@@H](CCCN=C(N)N)C(=O)N[C@@H](CCCCN)C(=O)N[C@@H](CC(C)C)C(=O)N[C@@H](Cc1ccccc1)C(=O)N[C@@H](CCCCN)C(=O)N[C@@H](CCCCN)C(=O)N[C@@H](CC(C)C)C(=O)N[C@@H](CC(C)C)C(=O)N[C@@H](CCCN=C(N)N)C(N)=O)[C@@H](C)CC [AIKIRKLFKKLLR]
MIC [1]: 19.7 µM (≈ 32 µg/mL)
MIC [2]: 9.83 µM (≈ 16 µg/mL)
MIC [3]: 19.7 µM (≈ 32 µg/mL)
MIC [4]: 4.92 µM (≈ 8 µg/mL)
MIC [5]: 4.92 µM (≈ 8 µg/mL)
MIC [6]: 19.7 µM (≈ 32 µg/mL)
MIC [7]: 4.92 µM (≈ 8 µg/mL)
MIC [8]: 19.7 µM (≈ 32 µg/mL)
MIC [9]: 4.92 µM (≈ 8 µg/mL)
MIC [10]: 19.7 µM (≈ 32 µg/mL)
MIC [11]: 19.7 µM (≈ 32 µg/mL)
MIC [12]: 19.7 µM (≈ 32 µg/mL)
MIC [13]: 9.83 µM (≈ 16 µg/mL)
MIC [14]: 19.7 µM (≈ 32 µg/mL)
MIC [15]: 2.46 µM (≈ 4 µg/mL)
MIC [16]: 2.46 µM (≈ 4 µg/mL)
MIC [17]: 19.7 µM (≈ 32 µg/mL)

Compound: CC[C@H](C)[C@H](NC(=O)[C@H](Cc1cnc[nH]1)NC(=O)[C@H](CCCCN)NC(=O)[C@H](CCCCN)NC(=O)[C@H](CC(C)C)NC(=O)[C@H](CCCCN)NC(=O)[C@H](CCCCN)NC(=O)[C@H](CC(C)C)NC(=O)[C@H](Cc1ccccc1)NC(=O)[C@H](Cc1ccccc1)NC(=O)[C@H](CCCCN)NC(=O)[C@@H](NC(=O)CN)[C@@H](C)CC)C(N)=O [GIKFFLKKLKKHI]
MIC [1]: 20 µM (≈ 32 µg/mL)
MIC [2]: 2.5 µM (≈ 4 µg/mL)
MIC [3]: 10 µM (≈ 16 µg/mL)
MIC [4]: 5 µM (≈ 8 µg/mL)
MIC [5]: 5 µM (≈ 8 µg/mL)
MIC [6]: 20 µM (≈ 32 µg/mL)
MIC [7]: 5 µM (≈ 8 µg/mL)
MIC [8]: 10 µM (≈ 16 µg/mL)
MIC [9]: 10 µM (≈ 16 µg/mL)
MIC [10]: 20 µM (≈ 32 µg/mL)
MIC [11]: 20 µM (≈ 32 µg/mL)
MIC [12]: 20 µM (≈ 32 µg/mL)
MIC [13]: 10 µM (≈ 16 µg/mL)
MIC [14]: 20 µM (≈ 32 µg/mL)
MIC [15]: 1.25 µM (≈ 2 µg/mL)
MIC [16]: 5 µM (≈ 8 µg/mL)
MIC [17]: 20 µM (≈ 32 µg/mL)

Compound: NC(=O)[C@H](CCCN=C(N)N)NC(=O)[C@H](CCCN=C(N)N)NC(=O)[C@H](Cc1c[nH]c2ccccc12)NC(=O)[C@H](CCCN=C(N)N)NC(=O)[C@H](Cc1c[nH]c2ccccc12)NC(=O)[C@H](Cc1c[nH]c2ccccc12)NC(=O)[C@@H](N)CCCN=C(N)N [RWWRWRR]
MIC [30]: ≥ 208 µM

Compound: CC(C)C[C@H](NC(=O)[C@H](Cc1ccc(O)cc1)NC(=O)[C@@H]1CCCN1C(=O)[C@@H]1CCCN1C(=O)[C@H](CCCCN)NC(=O)[C@H](CC(=O)O)NC(=O)[C@@H](N)C(C)C)C(=O)N1CCC[C@H]1C(=O)N[C@@H](CCCN=C(N)N)C(=O)N1CCC[C@H]1C(=O)N[C@@H](CCCN=C(N)N)C(=O)N1CCC[C@H]1C(=O)N1CCC[C@H]1C(=O)N[C@@H](CCCN=C(N)N)C(=O)N[C@@H](CCCN=C(N)N)C(=O)N[C@@H](CS)C(=O)N[C@@H](Cc1ccc(O)cc1)C(=O)N[C@@H](CC(N)=O)C(=O)N[C@@H](CCCN=C(N)N)C(=O)NCC(=O)O [VDKPPYLPRPRPPRRCYNRG]
MIC [30]: 0.0328 µM (≈ 0.08 µg/mL)

Compound: CC(C)[C@H](N)C(=O)N[C@@H](CCCN=C(N)N)C(=O)N1CCC[C@H]1C(=O)N[C@H](C(=O)N[C@H](C(=O)N[C@@H](CCCN=C(N)N)C(=O)N1CCC[C@H]1C(=O)N[C@H](C(=O)N[C@H](C(=O)N[C@@H](CCCN=C(N)N)C(=O)N1CCC[C@H]1C(=O)N[C@H](C(=O)N[C@H](C(=O)N[C@@H](CCCN=C(N)N)C(=O)N1CCC[C@H]1C(=O)N[C@H](C(=O)N[C@H](C(=O)N[C@@H](CCCN=C(N)N)C(=O)N1CCC[C@H]1C(=O)N[C@H](C(=O)N[C@H](C(=O)N[C@@H](CCCN=C(N)N)C(=O)N1CCC[C@H]1C(=O)N[C@H](C(N)=O)C(C)C)C(C)C)C(C)C)C(C)C)C(C)C)C(C)C)C(C)C)C(C)C)C(C)C)C(C)C)C(C)C [VRPVVRPVVRPVVRPVVRPVVRPV]
MIC [31]: 4 µM (≈ 10.9 µg/mL)
MIC [32]: > 64 µM
MIC [33]: 8 µM (≈ 21.8 µg/mL)
MIC [34]: 16 µM (≈ 43.6 µg/mL)
MIC [35]: ≥ 32 µM
MIC [36]: ≥ 32 µM
MIC [37]: 64 µM (≈ 174 µg/mL)
MIC [38]: 8 µM (≈ 21.8 µg/mL)
MIC [39]: ≥ 64 µM
MIC [40]: 64 µM (≈ 174 µg/mL)
MIC [41]: ≥ 64 µM
MIC [42]: > 64 µM
MIC [43]: 16 µM (≈ 43.6 µg/mL)
MIC [44]: > 64 µM
MIC [16]: > 64 µM

Further lines, results first:

MIC [18]: 16 µM (≈ 23.6 µg/mL)
MIC [19]: ≥ 32 µM
MIC [20]: 8 µM (≈ 11.8 µg/mL)
MIC [21]: ≥ 32 µM
MIC [22]: 16 µM (≈ 23.6 µg/mL)
MIC [23]: ≥ 32 µM
MIC [24]: ≥ 32 µM
MIC [25]: ≥ 32 µM
MIC [26]: 8 µM (≈ 11.8 µg/mL)
MIC [27]: ≥ 32 µM
MIC [28]: 8 µM (≈ 11.8 µg/mL)
MIC [29]: 16 µM (≈ 23.6 µg/mL)
Compound: CC[C@H](C)[C@H](NC(=O)[C@H](CCCCN)NC(=O)[C@H](Cc1c[nH]c2ccccc12)NC(=O)[C@@H](N)CCCN=C(N)N)C(=O)N[C@@H](Cc1ccccc1)C(=O)N[C@@H](CCCCN)C(=O)N[C@@H](CCCCN)C(=O)N[C@@H](C)C(=O)N[C@@H](C)C(=O)N[C@@H](CCCCN)C(=O)N[C@@H](CCCCN)C(=O)N[C@@H](C)C(N)=O [RWKIFKKAAKKA]

MIC [18]: 16 µM (≈ 23.4 µg/mL)
MIC [19]: 16 µM (≈ 23.4 µg/mL)
MIC [20]: 16 µM (≈ 23.4 µg/mL)
MIC [21]: ≥ 32 µM
MIC [22]: 16 µM (≈ 23.4 µg/mL)
MIC [23]: 16 µM (≈ 23.4 µg/mL)
MIC [24]: ≥ 32 µM
MIC [25]: 16 µM (≈ 23.4 µg/mL)
MIC [26]: 8 µM (≈ 11.7 µg/mL)
MIC [27]: ≥ 32 µM
MIC [28]: 8 µM (≈ 11.7 µg/mL)
MIC [29]: 16 µM (≈ 23.4 µg/mL)
Compound: CC[C@H](C)[C@H](NC(=O)[C@H](CCCCN)NC(=O)[C@H](Cc1c[nH]c2ccccc12)NC(=O)[C@@H](N)CCCN=C(N)N)C(=O)N[C@@H](Cc1ccccc1)C(=O)N[C@@H](CCCCN)C(=O)N[C@@H](CCCCN)C(=O)N[C@@H](C)C(=O)N[C@@H](C)C(=O)N[C@@H](CCCCN)C(=O)N[C@@H](CCCCN)C(=O)NCC(N)=O [RWKIFKKAAKKG]
